Laboratory results taken from patent US10456374B2, “Pyrrolidone carboxylic acid (PCA) for ophthalmic use” (Laboratori Baldacci S.p.A., priority 2015, dated 2019).

How the values were obtained:
[1] = Ex vivo transcorneal permeation through isolated rabbit cornea; type: in vitro ADME; conditions: donor RBB pH 7.6 with 0.02% w/w PCA and 0.04% w/w hyaluronic acid, 32° C.
Description: Evaluation of PCA Ex Vivo Transcorneal Permeation of a Composition According to Example 2 Through Isolated Rabbit Cornea.
For the determination of ex vivo corneal permeability, rabbit corneas obtained after proptosis of the eye, performed immediately after the animal euthanization, were used. The rabbits were New Zealand albino rabbits (n=3) and were euthanized by intravenous injection of Pentothal sodium (Farmaceutici Gellini, Aprilia, Italy). After the eyes were proptosed, the cornea, with 2 mm of sclera, was immediately excised and mounted in a perfusion apparatus. During the preparation, particular attention was paid to prevent the exfoliation of the corneal epithelium and its contact with any solid surfaces. […]
After the permeation experiment start, at appropriate intervals of time (15, 30, 60, 90, 120, 180 and 240 minutes), 0.50 mL of solution were withdrawn from the receiving compartment (endothelial side) and replaced with fresh RBB. At the end of the experiment, the entire donor phase was collected and submitted to quantitative determination of the active ingredient in a similar manner as provided for the samples of the receiving phase.
Quantitative analysis of PCA was performed by HPLC using a C18 reverse phase column C18 (Bondclone 10 μm 300×3.9 mm), and the eluent was a 98:2 mixture buffer solution to acetonitrile. […]

[2] = Residence in the ocular tissue; conditions: stated in the description, no test described
[3] = Pescina et al, 2015; cited from earlier work

Row | SMILES | Papp at 240 min, 0.02 % w/w ([1]; New Zealand albino, isolated rabbit cornea, read-out: PCA corneal permeability) [×10⁻⁶ cm/s] | PCA found in the receiving compartment, of the amount present in the donor compartment ([1]; end of the experiment (240 minutes)) [% w/w] | Period of time PCA remains in the ocular tissue [2] | permeability through porcine cornea [3]
1 | O=C1CCC(C(=O)O)N1 (stereo not shown) [PCA, Pyrrolidone carboxylic acid] | 3.95 | 0.051 | greater than 3 hours | –
2 | O=C1OC2(c3ccc(O)cc3Oc3cc(O)ccc32)c2ccccc21 [sodium fluorescein] | – | – | – | 0.05 10^−5 cm/s
